From US10597388B2, “Pyridazinone herbicides” (FMC CORPORATION, priority 2014, dated 2020)
Read-outs that look alike come from different tables or passages of the source.

What was measured:
Assay type in all cases: in vivo
[1] = tested on: barnyardgrass (Echinochloa crus-galli); test: Test A greenhouse herbicide test, pre- and postemergence; details: for pest or weed control at 1000 g/ha: Echinochloa crus-galli, 240 h
Method in brief: (§1)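 Seeds sown in loam–sand blend got a preemergence directed soil spray of compound in non-phytotoxic solvent with surfactant. Postemergence treatment was given at 2–10 cm, one- to two-leaf stage. After ~10 d in greenhouse, injury was rated visually vs untreated controls, 0 (no effect) to 100 (complete control).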

corn (Zea mays) = test: as above
Method in brief: as §1

[2] = tested on: crabgrass, large (large crabgrass, Digitaria sanguinalis); test: as above; details: 1000 g ai/ha, 0 to 100 scale
Method in brief: as §1

[3] = tested on: foxtail, giant (giant foxtail, Setaria faberii); test: as above; details: for pest or weed control at 1000 g/ha: Setaria faberi, 240 h
Method in brief: as §1

[4] = tested on: momingglory (Ipomoea spp.); test: as above; details: 1000 g ai/ha, 0 to 100 scale; for pest or weed control at 1000 g/ha: Ipomoea, 240 h
Method in brief: as §1

[5] = tested on: pigweed (Amaranthus retroflexus); test: as above
Method in brief: as §1

[6] = tested on: velvetleaf (Abutilon theophrasti); test: as above; details: Preemergence, 1000 g ai/ha, 0 to 100 scale, 0 no effect, 100 complete control
Method in brief: as §1

[7] = tested on: wheat (Triticum aestivum); test: as above; details: for plant injury at 1000 g/ha: Triticum aestivum, 240 h
Method in brief: as §1

[8] = tested on: barnyardgrass (Echinochloa crus-galli); test: Test B flooded paddy test; details: 250 g ai/ha, Flood; visual rating on scale of 0 to 100 where 0 is no effect and 100 is complete control; 13 to 15 d after treatment
Method in brief: (§2)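 Plants at the 2-leaf stage were flooded to 3 cm above soil, and test compounds were applied directly into the paddy water, which was held at that depth throughout. After 13 to 15 d in a greenhouse, injury was rated visually against untreated controls on a 0–100 scale (0 no effect, 100 complete control).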

[9] = tested on: ducksalad (Heteranthera limosa); test: Test B flooded paddy test; details: 250 g ai/ha, Flood; visual rating on scale of 0 to 100 where 0 is no effect and 100 is complete control; 13 to 15 d after treatment
Method in brief: as §2

rice (Oryza sativa) = test: Test B flooded paddy test; details: 250 g ai/ha, Flood; visual rating on scale of 0 to 100 where 0 is no effect and 100 is complete control; 13 to 15 d after treatment
Method in brief: as §2

[10] = tested on: sedge, umbrella (small-flower umbrella sedge, Cyperus difformis); test: Test B flooded paddy test; details: 250 g ai/ha, Flood; visual rating on scale of 0 to 100 where 0 is no effect and 100 is complete control; 13 to 15 d after treatment
Method in brief: as §2

kochia (Kochia scoparia) = test: Test A greenhouse herbicide test, pre- and postemergence
Method in brief: as §1

[11] = tested on: ragweed (common ragweed, Ambrosia elatior); test: as above
Method in brief: as §1

[12] = tested on: ryegrass, Italian (Italian ryegrass, Lolium multiflorum); test: as above
Method in brief: as §1

[13] = tested on: blackgrass (Alopecurus myosuroides); test: Test A greenhouse herbicide test, postemergence
Method in brief: (§3)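 Greenhouse postemergence test: formulated chemicals sprayed on one- to two-leaf plants (2 to 10 cm), grown in loam soil blended with sand. Injury assessed visually about 10 d later against untreated controls, scored 0 (no effect) to 100 (complete control).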

[14] = tested on: galium (catchweed bedstraw, Galium aparine); test: Test A greenhouse herbicide test, postemergence
Method in brief: as §3

[15] = Postemergence, 1000 g ai/ha, 0 to 100 scale, 0 is no effect, 100 is complete control
[16] = Preemergence, 1000 g ai/ha, 0 to 100 scale, 0 no effect, 100 complete control
[17] = Postemergence, 0 is no effect, 100 is complete control
[18] = Preemergence, 0 no effect, 100 complete control
[19] = Postemergence, 125 g ai/ha, 0 to 100 scale where 0 is no effect and 100 is complete control
[20] = Postemergence, 500 g ai/ha, visual rating after approx. 10 d, 0 to 100 scale (0 no effect, 100 complete control)
[21] = Preemergence, 125 g ai/ha, 0 to 100 scale where 0 is no effect and 100 is complete control
[22] = Preemergence, 500 g ai/ha, 0 to 100 scale where 0 is no effect and 100 is complete control
[23] = 125 g ai/ha, 0 to 100 scale where 0 is no effect and 100 is complete control
[24] = 500 g ai/ha, visual rating after approx. 10 d, 0 to 100 scale (0 no effect, 100 complete control)
[25] = Postemergence, 125 g ai/ha, 0 to 100 scale, 0 no effect, 100 complete control
[26] = Preemergence, 125 g ai/ha, visual injury rating, 0 to 100 scale (0 no effect, 100 complete control), approx. 10 d
[27] = 125 g ai/ha, 0 to 100 scale, 0 no effect, 100 complete control

With “5-hydroxy-4-(5-methoxy-3-benzofuranyl)-2,6-dimethyl-3(2H)-pyridazinone [Compound 5]” the “Barnyardgrass plant response rating” value [1, 15] was 40, the “Plant response rating, Barnyardgrass” value [1, 16] was 90 and the “Corn plant response rating” value (corn (Zea mays); [15]) was 0. For the same compound, the “Plant response rating, Corn” value (corn (Zea mays); [16]) was 0, the “Crabgrass, Large plant response rating” value [2, 17] was 80 and the “Plant response rating, Crabgrass, Large” value [2, 18] was 90. The “Foxtail, Giant plant response rating” value [3, 15] was 80, the “Plant response rating, Foxtail, Giant” value [3, 16] was 80 and the “Morningglory plant response rating” value [4, 17] was 70. The “Plant response rating, Morningglory” value [4, 18] was 0, the “Pigweed plant response rating” value [5, 15] was 10 and the “Plant response rating, Pigweed” value [5, 16] was 0. For the same compound, the “Plant response rating, Velvetleaf” value [6] was 0, the “Wheat plant response rating” value [7, 15] was 0 and the “Plant response rating, Wheat” value [7, 16] was 0. The “Plant response rating, Barnyardgrass” value [8] was 0, the “Plant response rating, Ducksalad” value [9] was 45 and the “Plant response rating, Rice” value (rice (Oryza sativa)) was 0. The “Plant response rating, Sedge, Umbrella” value [10] was 75.

For `Cc1nn(C)c(=O)c(-c2c(C)oc3ccc(Cl)cc23)c1O` [Compound 6, 4-(5-chloro-2-methyl-3-benzofuranyl)-5-hydroxy-2,6-dimethyl-3 (2H)-pyridazinone], the pest or weed control at 1000 g/ha ([1]; post-emergence, Postemergence, 1000 g ai/ha, 0 to 100 scale, 0 is no effect, 100 is complete control, read-out: Barnyardgrass plant response rating) was 70%, the pest or weed control at 1000 g/ha ([1]; pre-emergence, Preemergence, 1000 g ai/ha, 0 to 100 scale, 0 no effect, 100 complete control, read-out: Plant response rating, Barnyardgrass) was 100% and the plant injury at 1000 g/ha (corn (Zea mays); Zea mays, post-emergence, 240 h, Postemergence, 1000 g ai/ha, 0 to 100 scale, 0 is no effect, 100 is complete control, read-out: Corn plant response rating) was 0%. For the same compound, the Corn plant response rating (crop injury, 0 = no effect, 100 = complete kill) at 1000 g/ha (corn (Zea mays); Zea mays, pre-emergence, 240 h, Preemergence, 1000 g ai/ha, 0 to 100 scale, 0 no effect, 100 complete control) was 30%, the pest or weed control at 1000 g/ha ([2]; Digitaria sanguinalis, post-emergence, 240 h, Postemergence, 0 is no effect, 100 is complete control, read-out: Crabgrass, Large plant response rating) was 50% and the pest or weed control at 1000 g/ha ([3]; post-emergence, Postemergence, 1000 g ai/ha, 0 to 100 scale, 0 is no effect, 100 is complete control, read-out: Foxtail, Giant plant response rating) was 70%. The pest or weed control at 1000 g/ha ([3]; pre-emergence, Preemergence, 1000 g ai/ha, 0 to 100 scale, 0 no effect, 100 complete control, read-out: Plant response rating, Foxtail, Giant) was 50%, the pest or weed control at 1000 g/ha ([4]; post-emergence, Postemergence, 0 is no effect, 100 is complete control, read-out: Morningglory plant response rating) was 40% and the pest or weed control at 1000 g/ha ([4]; pre-emergence, Preemergence, 0 no effect, 100 complete control, read-out: Plant response rating, Morningglory) was 10%. For the same compound, the pest or weed control at 1000 g/ha ([5]; Amaranthus retroflexus, post-emergence, 240 h, Postemergence, 1000 g ai/ha, 0 to 100 scale, 0 is no effect, 100 is complete control, read-out: Pigweed plant response rating) was 50%, the pest or weed control at 1000 g/ha ([6]; Abutilon theophrasti, pre-emergence, 240 h, read-out: Plant response rating, Velvetleaf) was 20% and the plant injury at 1000 g/ha ([7]; post-emergence, Postemergence, 1000 g ai/ha, 0 to 100 scale, 0 is no effect, 100 is complete control, read-out: Wheat plant response rating) was 20%. For the same compound, the plant injury at 1000 g/ha ([7]; pre-emergence, Preemergence, 1000 g ai/ha, 0 to 100 scale, 0 no effect, 100 complete control, read-out: Plant response rating, Wheat) was 0%.

In the case of `Cc1ccc2oc(C)c(-c3c(O)c(C(C)C)nn(C)c3=O)c2c1` [Compound 119], the “Plant response rating, Barnyardgrass” value [1, 19] is reported as 0, the “Plant response rating, Barnyardgrass” value [1, 20] is reported as 0 and the “Barnyardgrass plant response rating” value [1, 21] is reported as 0. For the same compound, the “Plant response rating, Barnyardgrass” value [1, 22] was 0, the “Plant response rating, Corn” value (corn (Zea mays); [19]) was 0 and the “Plant response rating, Corn” value (corn (Zea mays); [20]) was 0. For the same compound, the “Plant response rating, Foxtail, Giant” value [3, 19] was 0, the “Plant response rating, Foxtail, Giant” value [3, 20] was 0 and the “Foxtail, Giant plant response rating” value [3, 21] was 0. The “Plant response rating, Foxtail, Giant” value [3, 22] was 0, the “Plant response rating, Kochia” value (kochia (Kochia scoparia); [19]) was 0 and the “Plant response rating, Kochia” value (kochia (Kochia scoparia); [20]) was 0. The “Kochia plant response rating” value (kochia (Kochia scoparia); [21]) was 0, the “Plant response rating, Kochia” value (kochia (Kochia scoparia); [22]) was 0 and the “Plant response rating, Pigweed” value [5, 19] was 0. For the same compound, the “Plant response rating, Pigweed” value [5, 20] was 0, the “Pigweed plant response rating” value [5, 21] was 0 and the “Plant response rating, Pigweed” value [5, 22] was 0. The “Plant response rating, Ragweed” value [11, 19] was 0, the “Plant response rating, Ragweed” value [11, 20] was 0 and the “Ragweed plant response rating” value [11, 21] was 0. For the same compound, the “Plant response rating, Ragweed” value [11, 22] was 0, the “Plant response rating, Ryegrass, Italian” value [12, 19] was 0 and the “Plant response rating, Ryegrass, Italian” value [12, 20] was 0. For the same compound, the “Ryegrass, Italian plant response rating” value [12, 21] was 0, the “Plant response rating, Ryegrass, Italian” value [12, 22] was 0 and the “Plant response rating, Wheat” value [7, 19] was 0. For the same compound, the “Plant response rating, Wheat” value [7, 20] was 0, the “Plant response rating, Blackgrass” value [13, 23] was 0 and the “Plant response rating, Blackgrass” value [13, 24] was 0. The “Plant response rating, Galium” value [14, 23] was 0, the “Plant response rating, Galium” value [14, 24] was 0 and the “Plant response rating, Barnyardgrass” value [8] was 0. The “Plant response rating, Ducksalad” value [9] was 0, the “Plant response rating, Rice” value (rice (Oryza sativa)) was 0 and the “Plant response rating, Sedge, Umbrella” value [10] was 0.

For `Cc1n[nH]c(=O)c(-c2cccc3ccccc23)c1OCC(F)F` [Compound 173], the “Plant response rating, Barnyardgrass” value [1, 25] was 0, the “Plant response rating, Barnyardgrass” value [1, 20] was 0 and the “Plant response rating, Barnyardgrass” value [1, 26] was 0. For the same compound, the “Plant response rating, Barnyardgrass” value [1, 22] was 0, the “Plant response rating, Corn” value (corn (Zea mays); [25]) was 0 and the “Plant response rating, Corn” value (corn (Zea mays); [20]) was 0. For the same compound, the “Plant response rating, Foxtail, Giant” value [3, 25] was 0, the “Plant response rating, Foxtail, Giant” value [3, 20] was 0 and the “Plant response rating, Foxtail, Giant” value [3, 26] was 0. For the same compound, the “Plant response rating, Foxtail, Giant” value [3, 22] was 0, the “Plant response rating, Kochia” value (kochia (Kochia scoparia); [25]) was 0 and the “Plant response rating, Kochia” value (kochia (Kochia scoparia); [20]) was 0. For the same compound, the “Plant response rating, Kochia” value (kochia (Kochia scoparia); [26]) was 0, the “Plant response rating, Kochia” value (kochia (Kochia scoparia); [22]) was 0 and the “Plant response rating, Pigweed” value [5, 25] was 0. The “Plant response rating, Pigweed” value [5, 20] was 0, the “Plant response rating, Pigweed” value [5, 26] was 0 and the “Plant response rating, Pigweed” value [5, 22] was 0. The “Plant response rating, Ragweed” value [11, 25] was 0, the “Plant response rating, Ragweed” value [11, 20] was 0 and the “Plant response rating, Ragweed” value [11, 26] was 0. The “Plant response rating, Ragweed” value [11, 22] was 0, the “Plant response rating, Ryegrass, Italian” value [12, 25] was 0 and the “Plant response rating, Ryegrass, Italian” value [12, 20] was 0. The “Plant response rating, Ryegrass, Italian” value [12, 26] was 0, the “Plant response rating, Ryegrass, Italian” value [12, 22] was 0 and the “Plant response rating, Wheat” value [7, 25] was 0. The “Plant response rating, Wheat” value [7, 20] was 0, the “Plant response rating, Blackgrass” value [13, 27] was 0 and the “Plant response rating, Blackgrass” value [13, 24] was 0. For the same compound, the “Plant response rating, Galium” value [14, 27] was 0, the “Plant response rating, Galium” value [14, 24] was 0 and the “Plant response rating, Barnyardgrass” value [8] was 0. The “Plant response rating, Ducksalad” value [9] was 0, the “Plant response rating, Rice” value (rice (Oryza sativa)) was 0 and the “Plant response rating, Sedge, Umbrella” value [10] was 0.
